In brackets after ≈: the same amount, converted by molar mass.
Key:
Assay type in all cases: functional
Conditions in all cases: read-out: ED50 (the source's name)
[1] = tested on: XF498; assay: Cytotoxicity against human XF498 cells
[2] = tested on: A549; assay: Cytotoxicity against human A549 cells
[3] = tested on: SK-OV-3; assay: Cytotoxicity against human SKOV3 cells
[4] = tested on: HCT-15; assay: Cytotoxicity against human HCT15 cells
[5] = tested on: SK-MEL-2; assay: Cytotoxicity against human SK-MEL-2 cells

| Compound | EC50 [1] | EC50 [2] | EC50 [3] | EC50 [4] | EC50 [5] |
| --- | --- | --- | --- | --- | --- |
| COC1=C(C(C)C)C(=O)c2c(O)cc3c(c2C1=O)C=C/C(=N\O)C3(C)C | 8.5 µg/mL (≈ 23.9 µM) | 9.1 µg/mL (≈ 25.6 µM) | 18.7 µg/mL (≈ 52.6 µM) | 7 µg/mL (≈ 19.7 µM) | 11.8 µg/mL (≈ 33.2 µM) |
| COC1=C(C(C)C)C(=O)c2c(O)cc3c(c2C1=O)C=CC(=O)C3(C)C [AGASTAQUINONE] | 1.8 µg/mL (≈ 5.29 µM) | 6.8 µg/mL (≈ 20 µM) | 12.8 µg/mL (≈ 37.6 µM) | 5.2 µg/mL (≈ 15.3 µM) | 4.1 µg/mL (≈ 12 µM) |
